Values quoted from earlier work in patent US12458674B2, “M13 phage based gene therapy platform” (Massachusetts Institute of Technology, priority 2021, dated 2025).

Settings: in vivo

SMILES: Cn1nnc2c(C(N)=O)ncn2c1=O [temozolomide]
- CSF to plasma ratio: about 20%
